From article PMC4640066 (Nature Communications, 2015)

Tests used:
HeLa cells = assay: Transition from S phase to mitotic entry and spindle formation; format: cell-based, human; settings: 30 μM
Method: Cells expressing EGFP-α-tubulin and mCherry-H2B were prepared as described previously. Cells were arrested at the S phase with 2-mM thymidine treatment for 15 h. To determine the time required for mitotic entry from S phase release, thymidine was removed by washing cells with PBS three times. After treatment with 30 μM gatastatin for 9 h, time-lapse analysis was performed using DeltaVision Olympus IX71 microscope (Applied Precision) equipped with CoolSNAP HQ camera (Photometrics). Images were taken every 6 min with 12 z-stack (1 μm per stack). During live cell imaging, cells were maintained at 37 °C and were supplied with 5% CO2. The timing of the mitotic entry was defined by the chromosome condensation after nuclear envelope breakdown.

[1] = molecular target: T1, porcine brain α/β-tubulin (Sus scrofa, UniProt P02550+P02554); assay: In vitro MT polymerization assay (glutamate, paclitaxel or Tau stimulated); format: biochemical; settings: absence of γ-tubulin; absorbance at 350 nm, 37 °C
T1 construct: α/β-Tubulin was purified from porcine brain; from tissue; host or cells: porcine brain
Method: For glutamate-stimulated MT polymerization, 1 mg ml^−1 porcine brain α/β-tubulin was mixed with glutamate (final concentration 1 M) and GTP (final concentration 1 mM) in RB buffer on ice. For paclitaxel-stimulated MT polymerization, 1 mg ml^−1 porcine brain α/β-tubulin was mixed with paclitaxel (final concentration 10 μM) and GTP (final concentration 1 mM) in RB buffer on ice. For recombinant Tau protein-stimulated MT polymerization, 1 mg ml^−1 α/β-tubulin purified from porcine brain and Tau protein were mixed with GTP (final concentration 1 mM) in RB buffer on ice. For γ-TuSC-stimulated MT polymerization, γ-TuSC was mixed with GTP (final concentration 1 mM). One of the compounds and α/β-tubulin were then added. Samples were transferred into cuvettes. Tubulin polymerization was monitored using the absorbance at 350 nm at 37 °C using a thermostatic spectrophotometer (Beckman Coulter).

[2] = system: γ-tubulin-dependent, RanQ69L-stimulated aster formation; assay: RanQ69L-stimulated aster formation in M-phase Xenopus egg extracts; format: biochemical
Method: Cytostatic factor (CSF)-arrested M phase Xenopus egg extracts (CSF extracts) were prepared. Briefly, unfertilized eggs were crushed by 10,700g centrifugation for 20 min. M phase extracts were mixed with 0.5 μM Cy3-labelled α/β-tubulin and various concentrations of compounds. After incubation for 30 min on ice, 15 μM RanQ69L, 200 sperm nuclei per μl or 5% DMSO were added and incubated for 30 min on ice. After incubation for 20 min at 20 °C (for the samples with sperm nuclei, the incubation time was 30 min), 1.5 μl sample was fixed with 1.5 μl fix solution (0.3 volume of 37% formaldehyde, 0.6 volume of 80% glycerol and 0.1 vol of 10 × MMR solution (50 mM HEPES, pH 7.8, 1 M NaCl, 20 mM KCl, 10 mM MgCl2, 20 mM CaCl2 and 1 mM EDTA)), followed by the squash fix.
Images were acquired using a microscope (Axiovert 200 M; Carl Zeiss Inc.) equipped with a plan-Apochromat × 63 NA 1.3 oil objective lens (Carl Zeiss Inc.), a Cy3 emission filter and a Cascade:1 K (Photometrics Inc.) camera, and the AxioVision software (Carl Zeiss Inc.). The aster size and fluorescence intensity were quantified using a macro written in MATLAB[41].

T1 sequence (P02550 whole entry): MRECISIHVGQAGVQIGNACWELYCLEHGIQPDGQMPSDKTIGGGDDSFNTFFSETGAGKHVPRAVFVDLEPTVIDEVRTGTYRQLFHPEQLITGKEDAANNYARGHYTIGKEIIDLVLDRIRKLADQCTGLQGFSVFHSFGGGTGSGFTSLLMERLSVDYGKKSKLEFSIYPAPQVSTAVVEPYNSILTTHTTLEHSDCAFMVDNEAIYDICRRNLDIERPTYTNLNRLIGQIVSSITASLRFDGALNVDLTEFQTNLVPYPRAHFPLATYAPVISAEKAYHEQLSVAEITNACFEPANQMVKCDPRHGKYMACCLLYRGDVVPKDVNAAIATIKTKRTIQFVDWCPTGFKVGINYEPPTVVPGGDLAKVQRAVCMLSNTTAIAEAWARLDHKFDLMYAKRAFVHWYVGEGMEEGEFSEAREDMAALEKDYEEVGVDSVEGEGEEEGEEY
T1 sequence (P02554 whole entry): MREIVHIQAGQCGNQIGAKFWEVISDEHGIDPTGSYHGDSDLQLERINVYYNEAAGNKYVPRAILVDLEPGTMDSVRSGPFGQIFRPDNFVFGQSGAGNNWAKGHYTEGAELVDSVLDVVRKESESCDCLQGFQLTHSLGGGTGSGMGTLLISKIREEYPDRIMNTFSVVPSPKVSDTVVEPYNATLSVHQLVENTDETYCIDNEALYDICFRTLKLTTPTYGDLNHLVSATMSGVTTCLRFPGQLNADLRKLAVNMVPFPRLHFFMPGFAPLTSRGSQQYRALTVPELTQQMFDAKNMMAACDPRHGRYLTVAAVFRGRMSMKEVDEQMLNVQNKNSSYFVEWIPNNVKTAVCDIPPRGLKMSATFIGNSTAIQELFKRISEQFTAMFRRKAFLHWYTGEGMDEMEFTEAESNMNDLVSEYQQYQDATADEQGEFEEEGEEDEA

IC50 ([2]; M-phase-arrested Xenopus egg extracts, 15 μM RanQ69L, 20 min at 20 °C): 9.7 µM
Compound: COc1cc2c(=O)c(-c3cc(OC)c4c(c3OC)OCO4)coc2cc1OCc1ccccc1 [Gatastatin, O^7-demethylbenzyl AG1]
Mitotic cells with abnormal bipolar spindles with misaligned chromosomes (HeLa cells; HeLa cells released from S phase (thymidine)): ~80%
Timing of mitotic entry versus DMSO (HeLa cells; HeLa released from S phase): virtually identical
Effect on MT polymerization in vitro induced by glutamate, paclitaxel or recombinant Tau protein [1]: failed to impair MT polymerization in vitro
Effect on number of RanQ69L-dependent asters ([2]; Xenopus egg extracts): without changing the number of asters
